Test results as given in a melting point compilation (Tetko et al.; mined from patent text by program, amines drawn as free bases though some values may be those of a salt).

melting point	SMILES
160 °C	CCC(=O)N1CCN(C(=O)COC2c3ccccc3C(=O)N2c2ccc3ccc(OC)nc3n2)CC1 (stereo not given)
156 to 157 °C	O[C@H]1c2cc(OCc3ccc4ccccc4c3)ccc2OC[C@H]1Oc1cccnc1 (relative stereo)
145 to 146 °C	Cc1cc2cnn(-c3ccccc3)c2nc1OCc1ncnn1C
130 °C	CCN(CC)c1ccc(-c2cc(-c3ccc(C(=O)O)cc3)ccc2CC(O)CO)cc1C(C)(C)C (stereo not given)
156 to 159 °C	CCn1ncc2c(Cl)c3c(nc21)C(=O)c1ccccc1CC3
189 to 190 °C	COc1cc(OC)c(-c2cc3ccccc3[nH]2)cc1C=CC(=O)c1ccc(S(=O)(=O)NCC(=O)O)cc1
65 to 66 °C	COC(=O)c1ccc(-c2cc(C)n(Cc3ccccc3)n2)o1
225 °C	O=C(O)c1cccc(SCc2c(O[C@H](Cn3ccnc3)c3ccccc3)ccc3c2CCCC3=O)c1
158 to 159 °C	CC1=C(O)C(=O)C(C)(C(O)Cc2ccccc2)O1 (stereo not given)
198 to 200 °C	CCCOc1ccccc1Nc1ncc(C(=O)OCC)c(=O)[nH]1
99 to 101 °C	CSC(=C[N+](=O)[O-])NCC(O)c1cccc(C)c1 (stereo not given)
71 to 85 °C	CCCCN(Cc1ccc(-c2ccccc2-c2nnn[nH]2)cc1)c1ncncc1C(=O)OC(C)OC(=O)C(C)(C)C (stereo not given)
77 to 78 °C	COC(=O)Cc1ccccc1OCc1cncc(OCc2nc(-c3ccccc3)oc2C)c1
220 to 222 °C	CN(C(=O)N1Cc2ncn(Cc3ccccc3)c2CC1C(=O)O)c1ccccc1 (stereo not given)
50 to 53 °C	CC(NSc1nc2ccccc2s1)c1ccccc1 (stereo not given)
258 °C	CC(=O)c1c(C)[nH]c(-c2ccccc2C)c1N
108 to 110 °C	COc1ccc(OCc2ccccc2)c(C(=O)C=Cc2cccc([N+](=O)[O-])c2)c1
> 300 °C	O=C(O)c1ccc(-c2cnc3c(c2)N(Cc2c(F)ccc(F)c2Cl)C(=O)CN3)cc1

melting point	SMILES
139 to 141 °C	COc1cc(CC(N)=O)c(CCc2ccc(O)c(OCc3ccccc3)c2)c(OC)c1OC
76 to 80 °C	Cc1cc(SC2=C(O)CC(CCc3csc(CO)c3)(C(C)C)OC2=O)c(C(C)(C)C)cc1CO (stereo not given)
59 to 60 °C	COC(=O)c1sccc1C(C)=O
120 to 122 °C	Cc1ccc(COc2ncc(F)c(NS(=O)(=O)c3ccc(C)cc3)n2)cc1
143 to 145 °C	Cc1ccc(S(=O)(=O)c2ccc3c(c2)c(CCN(C)C(=O)OC(C)(C)C)cn3C)cc1
232 to 234 °C	COc1ccc2c(c1)CCn1c-2ncc(C(=O)O)c1=O
200 to 201 °C	COc1cc(C(C)NC(=O)OCC2c3ccccc3-c3ccccc32)c([N+](=O)[O-])cc1OCCCC(=O)O (stereo not given)
75 to 78 °C	Cc1onc(C(=O)c2ccccc2Cl)c1N
215 to 217 °C	O=C(O)c1ccccc1Nc1ccc(CCc2ccc(O)c(O)c2)cc1
184 to 185 °C	Cc1cccc(C)c1NC(=O)CN1CCN(c2ncnc3sccc23)C(C)C1 (stereo not given)
141 °C	CC(=O)N1CS(=O)c2c1cc(C)cc2[N+](=O)[O-] (stereo not given)
190 to 192 °C	CCC1(Cl)C(=O)c2c(cc(OCC(=O)O)c(Cl)c2Cl)C1c1ccccc1 (stereo not given)
169 to 170 °C	Cc1cc(OC(F)F)cc(NC(=O)NS(=O)(=O)c2ccccc2Cl)n1
69.6 to 70.5 °C	CCCCCc1cc2c(=O)oc(C(=O)OCC)nc2s1
89 to 95 °C	CCOC(=O)C(=CNn1cnnc1)C(=O)c1cc(F)c(Cl)nc1Cl
119 to 120 °C	CCCc1nn(-c2ccc(C(F)(F)F)cn2)cc1CCCOc1ccc(CCC(=O)O)c(OCC)c1
178 to 180 °C	Cc1nc(SCc2ccncc2C(=O)O)sc1CC(=O)O
121 to 122 °C	CCc1ccc(CCOc2ccc(NC(=O)N(C)C)cc2)nc1

More lines, now with the values behind:

SMILES	melting point
C[Si](C)(C)c1ccc2c(c1)C([Si](C)(C)C)([Si](C)(C)C)c1cc([Si](C)(C)C)ccc1-2	141 to 142 °C
COc1cc(OC)c(N2CCCC2)cc1/C=C/C(=O)c1ccc(S(=O)(=O)NCc2ccccn2)cc1	112 to 116 °C
CCC1CN(Cc2c(C)cc(C)cc2C)CCN1 (stereo not given)	111 to 114 °C
COCCCCC1(O)C2=NCCCN2c2ccccc21 (stereo not given)	128 to 139 °C
O=C(Nc1ccc(S(=O)(=O)c2ccccn2)cc1)C(O)(C(F)F)C(F)F	200 to 202 °C
CC1CCC2CC(=O)N(Cc3ccccc3)C3OC4(C)CCC1C23OO4 (single isomer, unassigned; (-))	177 to 179 °C
O=C1C2CC3=C(CN2C(=O)N1c1ccccc1)N(Cc1ccccc1)CN3 (stereo not given)	227 to 229 °C
O=C(NC[C@@H]1CCNC[C@H]1O)c1cc(Cl)cc2c1OCCCO2	114 °C
COC(=O)c1cc(Cl)c(Oc2ccc(OC)c(C(=O)c3ccc(F)cc3)c2)c(Cl)c1	112 to 115 °C
c1ccc(-c2nc3n(n2)Cc2ccccc2-3)cc1	156 to 158 °C
C#CC12CCCN(CC1)C2 (stereo not given)	41 to 42 °C
OC1CCN(c2ncc(-c3cccc(Cl)c3)cn2)CC1	160 to 162 °C
CN1CCN(c2nc3sc4c(NCc5ccccn5)ncnc4c3c3c2COC(C)(C)C3)CC1	218 to 219 °C
Cc1nnc2n1-c1sc(Cc3ccccc3)cc1C(c1ccccc1Cl)=NC2	161 to 163 °C
COc1cc2c(cc1C)C1(CO2)C(=O)Nc2ccccc21 (stereo not given)	> 250 °C
NCC1Cc2c(F)c(F)cc(-c3ccccc3)c2O1 (stereo not given)	> 240 °C
COc1cc(COc2cc(/C=C/c3ccccn3)n(-c3ccccc3)n2)ccc1OCc1nc(-c2ccco2)oc1C	122 to 123 °C
CC(=O)NC(C(=O)NCc1ccccc1)c1ncc[nH]1 (stereo not given)	228 to 230 °C
O=[N+]([O-])c1ccc2c(c1)S(=O)(=O)NCN2CCF	165 to 166 °C
O=C(Nc1ccc2nc(CN3CCCCC3)ccc2c1)c1ccc(-c2ccccc2)cc1	186 to 188 °C

SMILES	melting point
Oc1ccc(C2(O)CCC3CN(Cc4ccccc4)CCC3C2)cc1 (stereo not given)	108 to 109 °C
CC(C)(N)c1ccc(-c2nc(Nc3cc(F)cc(F)c3)ncc2C#N)cc1	209 °C
CC(=O)OCCC1CCn2c(c(C3=C(c4cn(C)c5ccccc45)C(=O)OC3=O)c3ccccc32)C1 (stereo not given)	159 to 161 °C
OCc1c(-c2ccccc2)nn2c1-c1ccccc1CC2	185 to 187 °C
N[C@@H]1CCC(=O)N[C@@H]1c1cccc(OC(F)(F)F)c1 (relative stereo)	126 to 130 °C
CCn1cc(C2(c3cccc(-c4cncc(F)c4)c3)N=C(N)N(C)C2=O)cn1 (stereo not given)	216 to 220 °C
CSCn1c(Br)c(Br)c(C#N)c1-c1ccc(C(F)(F)F)cc1	140 to 145 °C
CC(C)(C)OC(=O)N1CCn2c(C#N)c(-c3cccc(F)c3)c(C(N)=O)c2C1	208 to 210 °C
Cc1ccc(-c2c(-c3ccc(S(C)(=O)=O)cc3)cnn(-c3ccc(F)cc3)c2=O)cc1F	245 to 248 °C
CN1C(=O)CN(C(=O)CCl)C(c2ccccc2)c2cc(Cl)ccc21 (stereo not given)	197 to 200 °C
COc1cc(C(=O)N2CCc3nnc(NN)cc3C2)cc(OC)c1OC	194 to 197 °C
CCOP(=O)(CC(N)=S)OCC	73 to 75 °C
CC(C)(C)OC(=O)N[C@@H]1CCc2ccc(OS(=O)(=O)C(F)(F)F)cc2C1	52 to 55 °C
CNC(=O)N(c1ccccc1)c1ccccc1	170 °C
CC(C)c1cc(OCCO)cc2c1C(=O)N(COc1nc3ccccn3c(=O)c1Cl)S2(=O)=O	214 to 216 °C
O=C1Nc2cc(Cl)ccc2C(=O)C1c1cc2ccccc2o1 (stereo not given)	342 °C
N#Cc1c(N2CCNCC2)c2cccnc2n(Cc2ccccc2)c1=O	211 °C
CC(=O)Nc1cccc2c1CCCC2	158 °C
CC(C)(C)C(=O)OC1CCC2(C)C(=CC(O)C3C2CCC2(C)C(=O)CC(OC(=O)C(C)(C)C)C32)C1 (stereo not given)	195 to 197 °C
CC(=O)C(=[N+]=[N-])C(=O)NCCO	69 to 70 °C

SMILES	melting point
Cc1nnc2n1-c1sc(C#CCn3c(=O)n(C)c(=O)c4ccccc43)cc1C(c1ccccc1Cl)=NC2	167 to 170 °C
CC(C)(CCCCCCCCC(C)(C)NC(=O)Cc1cc(C(C)(C)C)c(O)c(C(C)(C)C)c1)NC(=O)Cc1cc(C(C)(C)C)c(O)c(C(C)(C)C)c1	168 °C
COC(=O)c1ccc(-c2nc(-c3ccc4c(c3)C(C)(C)CCC4(C)C)co2)cc1	207 to 208 °C
COc1cccc(NC(=O)NC2N=C(c3ccc(C)cc3)c3ccccc3N(C)C2=O)c1 (stereo not given)	240 to 242 °C
COc1cc(C(C)(C)CCCC(=O)OC2CC(C)(C)NC(C)(C)C2)c(O)cc1C(C)(C)CCCC(=O)OC1CC(C)(C)NC(C)(C)C1	165 to 168 °C
CC(C)(C)OC(=O)N(C1CCNCC1)C1CCOCC1	104 °C
O=c1ccc(-c2ccc(Oc3ccc4c(c3)CCN(C3CCC3)CC4)nc2)n[nH]1	215 to 220 °C
COc1cc2ncc(C#N)c(Nc3ccc(Sc4nccn4C)c(Cl)c3)c2cc1OC	302 to 307 °C
Clc1ccc2c(C3CCN(CCCC4Cc5ccccc5C4)CC3)c[nH]c2c1	134 to 135 °C
CC(C)(C)OC(=O)NCC1Cc2ccc(OCc3ccccc3)cc2C1 (stereo not given)	95 to 98 °C
CN1Cc2c(C#CC(C)(C)C)ncn2-c2cccc(Cl)c2C1=O	126 to 128 °C
C[C@@]1(C=O)S[C@@H]2CC(=O)N2[C@H]1C(=O)OC(c1ccccc1)c1ccccc1	112 to 113 °C
CCCCCCCCCCCCS(=O)(=O)Nc1ccccc1C(=O)Nc1cc(Cl)c2c(c1O)CN(C)C(=O)N2	183 to 187 °C
c1ccc2c(c1)SCCCN2N=C1CCNCC1	113 to 115 °C
O=S(=O)(CC(Cl)(c1ccccc1)c1cc(Cl)ccc1Cl)CC(Cl)(c1ccccc1)c1cc(Cl)ccc1Cl (stereo not given)	136 °C
CN1C(C)(C)CC(NC(=O)c2ccc(-c3nc4ccc(Cl)cc4[nH]3)cc2)CC1(C)C	> 250 °C
CC(C#N)(COc1cc(C#N)ccc1C(F)(F)F)NC(=O)c1ccc(SC(F)(F)F)cc1 (stereo not given)	126 to 127 °C
Nc1ncnc2c1ccn2C1C=CC(CO)C1 (stereo not given)	165 to 168 °C
BrC(Br)=Cc1ccc(OCc2ccccc2)cc1	97 to 98 °C
